Assay results as given in patent US12083101B2, “Biaryl derivatives as YAP/TAZ-TEAD protein-protein interaction inhibitors” (Novartis AG, priority 2020, dated 2024).
Where two headings read alike, the source gives them in different places.

Legend:
[1] = molecular target: Avi-humanTEAD4 217-434 / Cy5 labeled humanYAP 60-100 (Homo sapiens (Human), UniProt Q15561); test: TR-FRET YAP-TEAD4 in-vitro biochemical assay; type: binding; settings: 1 nM Avi-humanTEAD4 217-434, 20 nM Cy5-humanYAP 60-100, 1 h room temperature
Chain of Avi-humanTEAD4 217-434 / Cy5 labeled humanYAP 60-100 (Q15561 217-434): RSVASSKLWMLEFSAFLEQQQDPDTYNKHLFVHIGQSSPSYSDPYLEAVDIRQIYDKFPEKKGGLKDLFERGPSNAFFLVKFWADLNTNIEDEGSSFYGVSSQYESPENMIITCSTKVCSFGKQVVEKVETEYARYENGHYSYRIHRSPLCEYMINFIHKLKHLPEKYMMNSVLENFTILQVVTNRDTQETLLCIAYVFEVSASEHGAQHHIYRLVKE

[2] = test system: NCI-H2052 Tet-On shYAP_2371 pLenti6 MCAT_Luc cells (YAP-dependent transcription); test: YAP reporter gene activity assay (MCAT-luciferase), NCI-H2052; type: cell-based; settings: 24 hours incubation, BrightGlo luminescence
Procedure, shortened: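 NCI-H2052 cells carrying an MCAT-luciferase reporter and a tetracycline-inducible YAP 3′UTR shRNA were treated with eleven 2-fold compound dilutions (0.1% DMSO) for 24 h at 37 °C. BrightGlo luminescence was background-subtracted and expressed as % of DMSO control. IC50 came from a four-parameter fit; MKN-45/Ubc-luc cells served as the specificity counterscreen.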

[3] = test system: NCI-H2052 Tet-On shYAP_2371 pLenti6 MCAT_Luc cells; test: Proliferation assay (resazurin), NCI-H2052; type: cell-based; settings: 72 hours incubation
Procedure, shortened: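 The NCI-H2052 line carries a Tet-inducible shRNA against the YAP1 3′UTR and an MCAT luciferase reporter. The day after seeding, it received eleven 2-fold compound dilutions at 0.1% DMSO, and viability was read by resazurin fluorescence.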

MKN-45/Ubc-luc cells [4] = test: Proliferation assay (resazurin), MKN-45; type: cell-based; settings: 72 hours incubation
MKN-45/Ubc-luc cells [5] = test: Reporter gene specificity control (Ubc-luciferase), MKN-45
Method: As a specificity control, MKN-45 cells were stably transduced with a Ubc-Luc reporter construct, in which constitutive expression of firefly luciferase is driven by the promoter of the ubiquitin C housekeeping gene.
Stock solutions of compounds were prepared at a concentration of 10 mM in DMSO and stored at 4° C. Where necessary to afford a full dose-response curve, the stock solutions were pre-diluted in DMSO to 1'000-fold the desired reduced start concentration. On the day after cell seeding, eleven 2-fold serial dilutions of each compound were dispensed directly into the cell assay plates using a HP 300D non-contact Digital Dispenser (TECAN, Mannedorf, Switzerland). The final concentration of DMSO was normalized to 0.1% in all wells.
The ability of compounds to inhibit YAP-dependent transcription was assessed in NCI-H2052 Tet-On shYAP_2371 pLenti6 MCAT_Luc cells, while specificity (lack of unspecific inhibition of luciferase expression of activity) was assessed in MKN-45/Ubc-luc cells. […] Following incubation for 24 hours at 37° C., compound-mediated modulation of reporter-gene activity was quantified 5 min after addition of 20 μl BrightGlo (Promega, Cat #E2620), by measuring luminescence intensity on a multi-mode plate-reader (TECAN, Männedorf, Switzerland, Integration time 100 ms). For data analysis, the assay background value determined in wells containing medium, but no cells, was subtracted from all data points. Dose-dependent compound effects were expressed as % of vehicle-treated control (luminescence signal produced by cells receiving DMSO only) and IC50s calculated using a four-parametric fit model.

[6] = Homo sapiens, MKN-45, 24 h, read-out: Reporter gene assay MKN-45 IC50 [μM], MKN-45/Ubc-luc cells (YAP deleted, specificity control), 24 hours incubation
[7] = read-out: Reporter gene assay MKN-45 IC50, MKN-45/Ubc-luc cells (YAP deleted, specificity control), 24 hours incubation

Row | SMILES | IC50 [1] [nM] | IC50 ([2]; Homo sapiens, NCI-H2052, 24 h) [nM] | GI50 ([3]; Homo sapiens, NCI-H2052, 72 h) [nM] | GI50 (MKN-45/Ubc-luc cells [4]; Homo sapiens) [µM] | IC50 (MKN-45/Ubc-luc cells [5]; [6]) [µM] | IC50 [2] [nM] | GI50 [3] [nM] | GI50 (MKN-45/Ubc-luc cells [4]) [µM] | IC50 (MKN-45/Ubc-luc cells [5]; [7]) [µM]
1 | NC[C@@]1(c2ccccc2)Cc2c(cc(F)c(Cl)c2-c2cc(SC(F)(F)CO)ccc2C(N)=O)O1 (atropisomer, axis not shown) [Example 39, 2-((2S,4R)-2-(aminomethyl)-5-chloro-6-fluoro-2-phenyl-2,3-dihydrobenzofuran-4-yl)-4-((1,1-difluoro-2-hydroxyethyl)thio)benzamide] | 102 | 2150 | 2830 | > 10 | > 10 | – | – | – | –
2 | NC[C@@]1(c2ccccc2)Cc2c(cc(F)c(Cl)c2-c2c(C(N)=O)ccc(OC(F)F)c2F)O1 (atropisomer, axis not shown) [Example 35, 2-((2S,4S)-2-(aminomethyl)-5-chloro-6-fluoro-2-phenyl-2,3-dihydrobenzofuran-4-yl)-4-(difluoromethoxy)-3-fluorobenzamide] | 9 | 276 | 310 | > 10 | > 10 | – | – | – | –
3 | COc1ccc(C(N)=O)c(-c2c(Cl)ccc3c2C[C@@](CN[C@H]2CC[C@@H](O)CC2)(c2ccccc2)O3)c1F (relative stereo) [Example 27b, 2-((2S,4S)-5-chloro-2-(((cis-4-hydroxycyclohexyl)amino)methyl)-2-phenyl-2,3-dihydrobenzofuran-4-yl)-3-fluoro-4-methoxybenzamide] | 1 | – | – | – | – | 78 | 182 | > 10 | > 10
4 | COc1ccc(C(N)=O)c(-c2c(Cl)c(F)cc3c2C[C@@](CN)(c2ccccc2)O3)c1F (atropisomer, axis not shown) [Example 33, 2-((2S,4S)-2-(aminomethyl)-5-chloro-6-fluoro-2-phenyl-2,3-dihydrobenzofuran-4-yl)-3-fluoro-4-methoxybenzamide] | 3 | 161 | 161 | > 10 | > 10 | – | – | – | –
5 | CNC(=O)c1ccc(OCCO)c(F)c1-c1c(Cl)c(F)cc2c1C[C@](c1ccccc1)(C1CCN1)O2 (stereo partly drawn) [Example 149, 2-((2S,4S)-2-(Azetidin-2-yl)-5-chloro-6-fluoro-2-phenyl-2,3-dihydrobenzofuran-4-yl)-3-fluoro-4-(2-hydroxyethoxy)-N-methylbenzamide] | 5 | 96 | 100 | > 10 | > 10 | – | – | – | –
6 | CS(=O)(=O)[C@H]1CC[C@H](NC[C@@]2(c3ccccc3)Cc3c(cc(F)c(Cl)c3-c3c(C(N)=O)ccc(OC(F)F)c3F)O2)CC1 [Example 54b, 2-((2S,4S)-5-chloro-6-fluoro-2-((((trans)-4-(methylsulfonyl)cyclohexyl)amino)methyl)-2-phenyl-2,3-dihydrobenzofuran-4-yl)-4-(difluoromethoxy)-3-fluorobenzamide] | 22 | 118 | 258 | > 10 | > 10 | – | – | – | –
7 | C[C@H]1c2c(cc(F)c(Cl)c2-c2c(C(N)=O)ccc(OCCO)c2F)O[C@]1(CN[C@H]1CC[C@](C)(O)CC1)c1ccccc1 (atropisomer, axis not shown) [Example 117a, 2-((2S,3S,4S)-5-chloro-6-fluoro-2-((((trans)-4-hydroxy-4-methylcyclohexyl)amino)methyl)-3-methyl-2-phenyl-2,3-dihydrobenzofuran-4-yl)-3-fluoro-4-(2-hydroxyethoxy)benzamide] | < 1 | 15 | 14 | > 10 | > 10 | – | – | – | –
8 | C[C@H]1c2c(cc(F)c(Cl)c2-c2c(C(N)=O)ccc(OCCO)c2F)O[C@]1(CN[C@H]1CC[C@@](C)(O)CC1)c1ccccc1 (atropisomer, axis not shown) [Example 117b, 2-((2S,3S,4S)-5-chloro-6-fluoro-2-((((cis)-4-hydroxy-4-methylcyclohexyl)amino)methyl)-3-methyl-2-phenyl-2,3-dihydrobenzofuran-4-yl)-3-fluoro-4-(2-hydroxyethoxy)benzamide] | 1 | 16 | 30 | > 10 | > 10 | – | – | – | –

Second part, the compound after the results:

Row | IC50 [1] [nM] | IC50 ([2]; Homo sapiens, NCI-H2052, 24 h) [nM] | GI50 ([3]; Homo sapiens, NCI-H2052, 72 h) [nM] | GI50 (MKN-45/Ubc-luc cells [4]; Homo sapiens) [µM] | IC50 (MKN-45/Ubc-luc cells [5]; [6]) [µM] | IC50 [2] [nM] | GI50 [3] [nM] | GI50 (MKN-45/Ubc-luc cells [4]) [µM] | IC50 (MKN-45/Ubc-luc cells [5]; [7]) [µM] | SMILES
9 | 3 | 20 | 22 | > 10 | > 10 | – | – | – | – | C[C@H](O)COc1ccc(C#N)c(-c2c(Cl)c(F)cc3c2[C@H](C)[C@@](CN[C@H]2CC[C@](C)(O)CC2)(c2ccccc2)O3)c1F (atropisomer, axis not shown) [Example 120, 2-((2S,3S,4S)-5-Chloro-6-fluoro-2-((((trans)-4-hydroxy-4-methylcyclohexyl)amino)methyl)-3-methyl-2-phenyl-2,3-dihydrobenzofuran-4-yl)-3-fluoro-4-((S)-2-hydroxypropoxy)benzonitrile]
10 | < 1 | 14 | 13 | > 10 | > 10 | – | – | – | – | COCCOc1ccc(C(N)=O)c(-c2c(Cl)c(F)cc3c2[C@H](C)[C@@](CN)(c2ccccc2)O3)c1F (atropisomer, axis not shown) [Example 106, 2-((2S,3S,4S)-2-(aminomethyl)-5-chloro-6-fluoro-3-methyl-2-phenyl-2,3-dihydrobenzofuran-4-yl)-3-fluoro-4-(2-methoxyethoxy)benzamide]
11 | 4 | 154 | 247 | > 10 | > 10 | – | – | – | – | CNC[C@@]1(c2ccccc2)Cc2c(ccc(Cl)c2-c2c(C(N)=O)ccc(OC)c2F)O1 (atropisomer, axis not shown) [Example 21, 2-((2S,4S)-5-Chloro-2-((methylamino)methyl)-2-phenyl-2,3-dihydrobenzofuran-4-yl)-3-fluoro-4-methoxybenzamide]
12 | 33 | 231 | 467 | > 10 | > 10 | – | – | – | – | NC(=O)c1ccc(OC(F)F)c(F)c1-c1c(Cl)c(F)cc2c1C[C@@](CN[C@H]1CC[C@@H](O)[C@H](F)C1)(c1ccccc1)O2 (atropisomer, axis not shown) [Example 81a, 2-((2S,4S)-5-chloro-6-fluoro-2-((((1S,3R,4R)-3-fluoro-4-hydroxycyclohexyl)amino)methyl)-2-phenyl-2,3-dihydrobenzofuran-4-yl)-4-(difluoromethoxy)-3-fluorobenzamide]
13 | 29 | 174 | 167 | > 10 | > 10 | – | – | – | – | CNC(=O)c1ccc(OCCO)c(F)c1-c1c(Cl)c(F)cc2c1C[C@](c1ccccc1)([C@@H]1CCCCN1)O2 (atropisomer, axis not shown) [Example 161, 2-((2S,4S)-5-Chloro-6-fluoro-2-phenyl-2-((S)-piperidin-2-yl)-2,3-dihydrobenzofuran-4-yl)-3-fluoro-4-(2-hydroxyethoxy)-N-methylbenzamide]
14 | 5 | – | – | – | – | 130 | 280 | > 10 | > 20 | COc1ccc(C(N)=O)c(-c2c(Cl)ccc3c2C[C@@](CN)(c2ccccc2)O3)c1F (single isomer, unassigned) [Example 5a]
15 | 3 | – | – | – | – | 35 | 144 | 6.2 | > 10 | C[C@H]1c2c(ccc(Cl)c2-c2c(C(N)=O)ccc(OC(F)F)c2F)O[C@]1(CN[C@H]1CC[C@@](C)(O)CC1)c1ccccc1 (relative stereo) [Example 104a, 2-((2S,3S,4S)-5-chloro-2-((((cis)-4-hydroxy-4-methylcyclohexyl)amino)methyl)-3-methyl-2-phenyl-2,3-dihydrobenzofuran-4-yl)-4-(difluoromethoxy)-3-fluorobenzamide]
16 | 3 | – | – | – | – | 37 | 21 | 11 | 12 | COc1ccc(C(N)=O)c(-c2c(Cl)c(F)cc3c2C[C@](c2ccccc2)([C@@H]2CCCN2)O3)c1F [Example 174, 2-((2S,4S)-5-Chloro-6-fluoro-2-phenyl-2-((S)-pyrrolidin-2-yl)-2,3-dihydrobenzofuran-4-yl)-3-fluoro-4-methoxybenzamide]
17 | 4 | 65 | 117 | > 10 | > 10 | – | – | – | – | COc1ccc(C(N)=O)c(-c2c(Cl)c(F)cc3c2[C@H](O)[C@@](CN)(c2ccccc2)O3)c1F (atropisomer, axis not shown) [Example 97, 2-((2S,3S,4S)-2-(Aminomethyl)-5-chloro-6-fluoro-3-hydroxy-2-phenyl-2,3-dihydrobenzofuran-4-yl)-3-fluoro-4-methoxybenzamide]
18 | 23300 | – | – | – | – | > 10000 | > 10000 | > 10 | > 10 | COc1ccc(C(N)=O)c(-c2c(Cl)ccc3c2C[C@@](CN)(c2ccccc2)O3)c1F (single isomer, unassigned) [Example 5b]
